Literature values, collected in US20110008426A1, “MODIFIED RELEASE PHARMACEUTICAL COMPOSITIONS COMPRISING MYCOPHENOLATE AND PROCESSES THEREOF” (priority 2008, published 2011).
Values joined by “and” are separate entries in the source; they are usually repeats but may differ in a detail not shown here. Equal values may be shown once. Read-outs that look alike come from different tables or passages of the source.

Columns and labels:
[1] = MMF 1 g b.i.d; EC-MPS 720 mg b.i.d
[2] = not given; remark: listed apart in the source
[3] = 423 de novo kidney allograft recipients
[4] = not given; remark: listed apart in the source
[5] = transplant patients, acute rejection
[6] = controlled de novo and maintenance renal studies, patients

Row | SMILES | Adverse Events: Anemia [6] | Adverse Events: Constipation [6] | Adverse Events: Diarrhoea [6] | Adverse Events: Dyspepsia [6] | Adverse Events: Insomnia [6] | Adverse Events: Leukopenia [6] | Adverse Events: Nausea [6] | Adverse Events: Urinary Tract Infection [6] | Adverse Events: Vomiting [6] | Cmax of MPA [1] | incidence of GI adverse events [3] | adverse effects: blood and lymphatic system disorders ([4]; www.rxlist.com) | adverse effects: constipation ([4]; www.rxlist.com) | adverse effects: diarrhea ([4]; www.rxlist.com) | adverse effects: nausea ([4]; www.rxlist.com) | adverse effects: urinary tract infections ([4]; www.rxlist.com) | adverse effects: vomiting ([4]; www.rxlist.com) | also measured
1 | COc1c(C)c2c(c(O)c1C/C=C(\C)CCC(=O)O)C(=O)OC2 [MPS, mycophenolate sodium] | 21.9% | 39.5% | 23.5% | 19% | 23.8% | 20.5% | 27.1% | 33.3% | 23% | 18930 ng/mL | 79.8% | 41.8% | 38% | 23.5% | 29% | 29.1% | 23% | Adverse Events: CMV infections (in vivo): 18.1%; solubility of the drug ([2]; pH above 6.0): high solubility; solubility of the drug ([2]; pH below 6.0): poor solubility; adverse effects: CMV infection ([4]; in vivo): 20.2%
2 | COc1c(C)c2c(c(O)c1C/C=C(\C)CCC(=O)OCCN1CCOCC1)C(=O)OC2 [MMF, mycophenolate mofetil] | 21.6% | 38.0% | 24.8% | 22.5% | 23.5% | 19.2% | 29.1% | 29.1% | 20% | 21300 ng/mL | 77.1% | 42.4% | 39.5% | 24.8% | 27.1% | 33.3% | 20% | Adverse Events: CMV infections [6]: 20.2%; adverse effects: CMV infection ([4]; www.rxlist.com): 18.1%
3 | COc1c(C)c2c(c(O)c1C/C=C(\C)CCC(=O)O)C(=O)OC2 [mycophenolic acid, Mycophenolic acid] | – | – | – | – | – | – | – | – | – | – | – | – | – | – | – | – | – | mycophenolic acid AUC expected to yield 50% of maximal achievable efficacy [5]: 15 µg·h/mL; mycophenolic acid AUC that would yield 90% efficacy [5]: 25 µg·h/mL and 40 µg·h/mL
